What was measured:
[1] = species: Rattus norvegicus; experiment: The percent intrinsic activity, determined by level of antagonist induced secretion; assay type: functional
[2] = species: Rattus norvegicus; experiment: In vitro relative potency versus [DPhe12,Nle21,38]-hCRF(12-41), using rat pituitary culture assay; assay type: functional

Question: How did the IA [1] turn out when `CCCC[C@H](NC(=O)[C@H](CCC(=O)O)NC(=O)[C@H](CC(C)C)NC(=O)[C@@H](NC(=O)[C@H](CCC(=O)O)NC(=O)[C@H](CCCN=C(N)N)NC(=O)[C@H](CC(C)C)NC(=O)[C@@H]1CCCCNC(=O)CC[C@H](NC(=O)[C@H](CC(C)C)NC(=O)[C@@H](N)CC(=O)O)C(=O)N[C@H](Cc2ccccc2)C(=O)N[C@@H](Cc2c[nH]cn2)C(=O)N1)C(C)C)C(=O)N[C@@H](C)C(=O)N[C@@H](CCCN=C(N)N)C(=O)N[C@@H](C)C(=O)N[C@@H](CCC(=O)O)C(=O)N[C@@H](CCC(N)=O)C(=O)N[C@@H](CC(C)C)C(=O)N[C@@H](C)C(=O)N[C@@H](CCC(N)=O)C(=O)N[C@@H](CCC(N)=O)C(=O)N[C@@H](C)C(=O)N[C@@H](Cc1c[nH]cn1)C(=O)N[C@@H](CO)C(=O)N[C@@H](CC(N)=O)C(=O)N[C@@H](CCCN=C(N)N)C(=O)N[C@@H](CCCCN)C(=O)N[C@@H](CC(C)C)C(=O)N[C@@H](CCCC)C(=O)N[C@@H](CCC(=O)O)C(=O)N[C@H](C(=O)N[C@H](C(N)=O)[C@@H](C)CC)[C@@H](C)CC` was run?
Answer: Its IA is 29%.

Question: And the Relative potency [2]?
Answer: Its Relative potency is 0.005.

Question: With `CCCC[C@H](NC(=O)[C@H](CCC(=O)O)NC(=O)[C@H](CC(C)C)NC(=O)[C@@H](NC(=O)[C@H](CCC(=O)O)NC(=O)[C@H](CCCN=C(N)N)NC(=O)[C@H](CC(C)C)NC(=O)[C@H](CC(C)C)NC(=O)[C@@H]1CCCCNC(=O)CC[C@H](NC(=O)[C@@H](N)CC(=O)O)C(=O)N[C@@H]([C@@H](C)O)C(=O)N[C@H](Cc2ccccc2)C(=O)N1)C(C)C)C(=O)N[C@@H](C)C(=O)N[C@@H](CCCN=C(N)N)C(=O)N[C@@H](C)C(=O)N[C@@H](CCC(=O)O)C(=O)N[C@@H](CCC(N)=O)C(=O)N[C@@H](CC(C)C)C(=O)N[C@@H](C)C(=O)N[C@@H](CCC(N)=O)C(=O)N[C@@H](CCC(N)=O)C(=O)N[C@@H](C)C(=O)N[C@@H](Cc1c[nH]cn1)C(=O)N[C@@H](CO)C(=O)N[C@@H](CC(N)=O)C(=O)N[C@@H](CCCN=C(N)N)C(=O)N[C@@H](CCCCN)C(=O)N[C@@H](CC(C)C)C(=O)N[C@@H](CCCC)C(=O)N[C@@H](CCC(=O)O)C(=O)N[C@H](C(=O)N[C@H](C(N)=O)[C@@H](C)CC)[C@@H](C)CC` as the molecule, how does the IA [1] read?
Answer: Its IA is 27%.

Question: And the Relative potency [2]?
Answer: Its Relative potency is 0.27.

Source: ChEMBL document CHEMBL1130221, “Constrained corticotropin-releasing factor antagonists with i-(i + 3) Glu-Lys bridges” (1997)
